Results published in patent US6642391B2, “Amycomycin, a process for its production and its use as a pharmaceutical” (priority 1999, dated 2003).
Values after ≈ are worked out from the molar mass of the structure shown. Where two headings read alike, the source gives them in different places.

Tests used:
E.faecalis O2D2DU18 = test: MIC micro-dilutions test; type: cell-based; conditions: Enterococcus faecalis
Description: (§1) Lately, these strains have proven increasingly to be problem strains, i.e., those microorganisms that have become resistant to existing antibiotics. The superiority of the present compound in relation to other antibiotics is shown, for example, in the inhibition of vancomycin- and teicoplanin-resistant strains such as, for example, E. faecalis, E. faecium or E. gallinarium.

E.faecalis O2D2HM9 = test: MIC micro-dilutions test; type: cell-based; conditions: Enterococcus faecalis
Description: as §1

E.faecalis O2D2HT10 = test: MIC micro-dilutions test; type: cell-based; conditions: Enterococcus faecalis
Description: as §1

E.faecalis O2D2UC5 = test: MIC micro-dilutions test; type: cell-based; conditions: Enterococcus faecalis
Description: as §1

E.faecium O2D3AP9 = test: MIC micro-dilutions test; type: cell-based; conditions: Enterococcus faecium
Description: as §1

E.faecium O2D3HM3 = test: MIC micro-dilutions test; type: cell-based; conditions: Enterococcus faecium
Description: as §1

E.faecium O2D3HT12 = test: MIC micro-dilutions test; type: cell-based; conditions: Enterococcus faecium
Description: as §1

E.gallinarium O2D0HM8 = test: MIC micro-dilutions test; type: cell-based; conditions: read-out: Minimum Inhibition Concentration
Description: as §1

P.aeruginosa 1771 391HT2 = test: MIC micro-dilutions test; type: cell-based; conditions: Pseudomonas aeruginosa, 1771391HT2, Gram-negative, read-out: Minimum Inhibition Concentration
Description: as §1

[1] = test system: P.aeruginosa 1771m 391HT3; test: MIC micro-dilutions test; type: cell-based; conditions: Pseudomonas aeruginosa, 1771M391HT3, read-out: Minimum Inhibition Concentration
Description: as §1

S.aureus 011CB20 = test: MIC micro-dilutions test; type: cell-based; conditions: Staphylococcus aureus
Description: as §1

S.aureus 011DU5 = test: MIC micro-dilutions test; type: cell-based; conditions: Staphylococcus aureus
Description: as §1

S.aureus 011GO64 = test: MIC micro-dilutions test; type: cell-based; conditions: Staphylococcus aureus
Description: as §1

S.aureus 011GO71 = test: MIC micro-dilutions test; type: cell-based; conditions: Staphylococcus aureus
Description: as §1

S.aureus 011GR91 = test: MIC micro-dilutions test; type: cell-based; conditions: Staphylococcus aureus
Description: as §1

S.aureus 011HT18 = test: MIC micro-dilutions test; type: cell-based; conditions: Staphylococcus aureus
Description: as §1

S.aureus 011HT1 = test: MIC micro-dilutions test; type: cell-based; conditions: Staphylococcus aureus
Description: as §1

S.aureus 011HT3 = test: MIC micro-dilutions test; type: cell-based; conditions: Staphylococcus aureus
Description: as §1

S.epidermidis 012GO20 = test: MIC micro-dilutions test; type: cell-based; conditions: Staphylococcus epidermidis; S.epidermidis 012GO20, oxa S ery S tet R; Gram-positive; read-out: Minimum Inhibition Concentration
Description: as §1

S.epidermidis 012GO42 = test: MIC micro-dilutions test; type: cell-based; conditions: Staphylococcus epidermidis; S.epidermidis 012GO42, oxa R; Gram-positive; read-out: Minimum Inhibition Concentration
Description: as §1

S.mitis O2mitGR16 = test: MIC micro-dilutions test; type: cell-based; conditions: Streptococcus mitis
Description: as §1

S.pneumoniae 030BI2 = test: MIC micro-dilutions test; type: cell-based; conditions: Streptococcus pneumoniae
Description: as §1

S.pyogenes O2A1FI6 = test: MIC micro-dilutions test; type: cell-based; conditions: Streptococcus pyogenes
Description: as §1

S.pyogenes O2A1SJ1 = test: MIC micro-dilutions test; type: cell-based; conditions: Streptococcus pyogenes
Description: as §1

S.pyogenes O2A1UC1 = test: MIC micro-dilutions test; type: cell-based; conditions: Streptococcus pyogenes
Description: as §1

[2] = test system: Staph.coag.negative 012HT5; test: MIC micro-dilutions test; type: cell-based; conditions: read-out: Minimum Inhibition Concentration
Description: as §1

Strepto gr.G O2G0CB2 = test: MIC micro-dilutions test; type: cell-based; conditions: read-out: Minimum Inhibition Concentration
Description: as §1

[3] = Physical-chemical characteristics: solubility; type: physicochemical; conditions: solvents: methanol, DMSO, pyridine
Description: The physical-chemical as well as the spectroscopic characteristics of the compound Amycomycin according to the invention are as follows: […]

[4] = test system: gram-positive bacteria such as Staphylo- and Enterococci; test: Antibacterial activity; type: cell-based; conditions: particularly against gram-positive bacteria such as Staphylo- and Enterococci
Description: as §1

E.faecium O2D3IP2 = test: MIC micro-dilutions test; type: cell-based; conditions: Enterococcus faecium; E.faecium O2D3IP2, tei R van R ery R tet R; Gram-positive; read-out: Minimum Inhibition Concentration
Description: as §1

S.milleri O2milGR12 = test: MIC micro-dilutions test; type: cell-based; conditions: S.milleri O2milGR12, ery S van S; Gram-positive; read-out: Minimum Inhibition Concentration
Description: as §1

C/C(=C\CC(O)CC(O)CCC(C)C(O)C(C)C(O)CCCC(O)C(C)C(O)/C(C)=C/C(C)C(=O)/C(C)=C/C(O)C(O)CC(O)CC(O)C(C)CCC(O)CC(O)CCC(C)C(O)C(C)C(O)C(C)C)C(=O)C1=C(O)/C(=C/C(C)C)N(C)C1=O (stereo not drawn) [Amycomycin]
MIC (E.faecalis O2D2DU18; E.faecalis O2D2DU18, tet R nov R, Gram-positive, read-out: Minimum Inhibition Concentration): 1.2 µg/mL (≈ 1 µM) | MIC (E.faecalis O2D2HM9; E.faecalis O2D2HM9, nov R van B ery R tei S, Gram-positive, read-out: Minimum Inhibition Concentration): 2.5 µg/mL (≈ 2.09 µM) | MIC (E.faecalis O2D2HT10; E.faecalis O2D2HT10, nov R van S tet R, Gram-positive, read-out: Minimum Inhibition Concentration): 1.2 µg/mL (≈ 1 µM) | MIC (E.faecalis O2D2UC5; ATCC29212, E.faecalis O2D2UC5, ATCC 29212 nov R, Gram-positive, read-out: Minimum Inhibition Concentration): 2.5 µg/mL (≈ 2.09 µM) | MIC (E.faecium O2D3AP9; E.faecium O2D3AP9, nov S van R ery S tei R, Gram-positive, read-out: Minimum Inhibition Concentration): 0.6 µg/mL (≈ 0.501 µM) | MIC (E.faecium O2D3HM3; E.faecium O2D3HM3, nov S van A ery R tei R, Gram-positive, read-out: Minimum Inhibition Concentration): 1.2 µg/mL (≈ 1 µM) | MIC (E.faecium O2D3HT12; E.faecium O2D3HT12, tei R van R ery R tet R, Gram-positive, read-out: Minimum Inhibition Concentration): 0.6 µg/mL (≈ 0.501 µM) | MIC (E.gallinarium O2D0HM8; E.gallinarium O2D0HM8, van C tet R ery S, Gram-positive): 1.2 µg/mL (≈ 1 µM) | MIC (P.aeruginosa 1771 391HT2): > 40 µg/mL | MIC [1]: > 40 µg/mL | MIC (S.aureus 011CB20; S.aureus 011CB20, oxa R ery Rc tet R, Gram-positive, read-out: Minimum Inhibition Concentration): 0.08 µg/mL (≈ 0.0667 µM) | MIC (S.aureus 011DU5; S.aureus 011DU5, nov R tet R, Gram-positive, read-out: Minimum Inhibition Concentration): 0.08 µg/mL (≈ 0.0667 µM) | MIC (S.aureus 011GO64; S.aureus 011GO64, ofl R oxa R ery Rc tet R, Gram-positive, read-out: Minimum Inhibition Concentration): 0.3 µg/mL (≈ 0.25 µM) | MIC (S.aureus 011GO71; S.aureus 011GO71, ofl S oxa R ery S tet R, Gram-positive, read-out: Minimum Inhibition Concentration): 0.15 µg/mL (≈ 0.125 µM) | MIC (S.aureus 011GR91; S.aureus 011GR91, pri R oxa R ery R nov R, Gram-positive, read-out: Minimum Inhibition Concentration): 1.2 µg/mL (≈ 1 µM) | MIC (S.aureus 011HT18; ATCC13709, S.aureus 011HT18, ATCC 13709 Smith, Gram-positive, read-out: Minimum Inhibition Concentration): 0.08 µg/mL (≈ 0.0667 µM) | MIC (S.aureus 011HT1; S.aureus 011HT1, nov R, Gram-positive, read-out: Minimum Inhibition Concentration): ≤ 0.04 µg/mL | MIC (S.aureus 011HT3; S.aureus 011HT3, oxa S ery S, Gram-positive, read-out: Minimum Inhibition Concentration): 0.08 µg/mL (≈ 0.0667 µM) | MIC (S.epidermidis 012GO20): 0.3 µg/mL (≈ 0.25 µM) | MIC (S.epidermidis 012GO42): 0.3 µg/mL (≈ 0.25 µM) | MIC (S.mitis O2mitGR16; S.mitis O2mitGR16, ery Ri van S, Gram-positive, read-out: Minimum Inhibition Concentration): 1.2 µg/mL (≈ 1 µM) | MIC (S.pneumoniae 030BI2; S.pneumoniae 030BI2, ery R, Gram-positive, read-out: Minimum Inhibition Concentration): 0.15 µg/mL (≈ 0.125 µM) | MIC (S.pyogenes O2A1FI6; S.pyogenes O2A1FI6, ery R, Gram-positive, read-out: Minimum Inhibition Concentration): 0.6 µg/mL (≈ 0.501 µM) | MIC (S.pyogenes O2A1SJ1; S.pyogenes O2A1SJ1, van S ery Rc, Gram-positive, read-out: Minimum Inhibition Concentration): 0.3 µg/mL (≈ 0.25 µM) | MIC (S.pyogenes O2A1UC1; S.pyogenes O2A1UC1, van S ery S, Gram-positive, read-out: Minimum Inhibition Concentration): 0.6 µg/mL (≈ 0.501 µM) | MIC ([2]; Staph.coag.negative 012HT5, ofl R oxa R tet R, Gram-positive): 0.15 µg/mL (≈ 0.125 µM) | MIC (Strepto gr.G O2G0CB2; Strepto gr.G O2G0CB2, tet R rif R nov R, Gram-positive): 0.6 µg/mL (≈ 0.501 µM) | Solubility (Appearance) [3]: colorless solid, soluble in methanol, DMSO, | antibacterial activity [4]: extraordinary antibacterial activity

CN[C@H](CC(C)C)C(=O)N[C@H]1C(=O)N[C@@H](CC(N)=O)C(=O)N[C@H]2C(=O)N[C@H]3C(=O)N[C@H](C(=O)N[C@H](C(=O)O)c4cc(O)cc(O)c4-c4cc3ccc4O)[C@H](O)c3ccc(c(Cl)c3)Oc3cc2cc(c3O[C@@H]2O[C@H](CO)[C@@H](O)[C@H](O)[C@H]2O[C@H]2C[C@](C)(N)[C@H](O)[C@H](C)O2)Oc2ccc(cc2Cl)[C@H]1O [Vancomycin, reference compound]
MIC (E.faecalis O2D2DU18; O2D2DU18, read-out: Minimum Inhibition Concentration): 0.3 µg/mL (≈ 0.207 µM) | MIC (E.faecalis O2D2HM9; O2D2HM9, read-out: Minimum Inhibition Concentration): > 40 µg/mL | MIC (E.faecalis O2D2HT10; O2D2HT10, read-out: Minimum Inhibition Concentration): 0.6 µg/mL (≈ 0.414 µM) | MIC (E.faecalis O2D2UC5; ATCC29212, read-out: Minimum Inhibition Concentration): 2.5 µg/mL (≈ 1.73 µM) | MIC (E.faecium O2D3AP9; O2D3AP9, read-out: Minimum Inhibition Concentration): > 40 µg/mL | MIC (E.faecium O2D3HM3; O2D3HM3, read-out: Minimum Inhibition Concentration): > 40 µg/mL | MIC (E.faecium O2D3HT12; O2D3HT12, read-out: Minimum Inhibition Concentration): > 40 µg/mL | MIC (E.faecium O2D3IP2): > 40 µg/mL | MIC (E.gallinarium O2D0HM8): > 40 µg/mL | MIC (S.aureus 011CB20; 011CB20, read-out: Minimum Inhibition Concentration): 0.15 µg/mL (≈ 0.104 µM) | MIC (S.aureus 011DU5; 011DU5, read-out: Minimum Inhibition Concentration): 0.15 µg/mL (≈ 0.104 µM) | MIC (S.aureus 011GO64; 011GO64, read-out: Minimum Inhibition Concentration): 1.2 µg/mL (≈ 0.828 µM) | MIC (S.aureus 011GO71; 011GO71, read-out: Minimum Inhibition Concentration): 0.6 µg/mL (≈ 0.414 µM) | MIC (S.aureus 011GR91; 011GR91, read-out: Minimum Inhibition Concentration): 1.2 µg/mL (≈ 0.828 µM) | MIC (S.aureus 011HT18; ATCC13709, read-out: Minimum Inhibition Concentration): 0.3 µg/mL (≈ 0.207 µM) | MIC (S.aureus 011HT1; 011HT1, read-out: Minimum Inhibition Concentration): 0.08 µg/mL (≈ 0.0552 µM) | MIC (S.aureus 011HT3; 011HT3, read-out: Minimum Inhibition Concentration): 0.3 µg/mL (≈ 0.207 µM) | MIC (S.milleri O2milGR12): 0.3 µg/mL (≈ 0.207 µM) | MIC (S.mitis O2mitGR16; O2MITGR16, read-out: Minimum Inhibition Concentration): 0.3 µg/mL (≈ 0.207 µM) | MIC (S.pneumoniae 030BI2; 030BI2, read-out: Minimum Inhibition Concentration): 0.15 µg/mL (≈ 0.104 µM) | MIC (S.pyogenes O2A1FI6; O2A1FI6, read-out: Minimum Inhibition Concentration): 0.08 µg/mL (≈ 0.0552 µM) | MIC (S.pyogenes O2A1SJ1; O2A1SJ1, read-out: Minimum Inhibition Concentration): 0.15 µg/mL (≈ 0.104 µM) | MIC (S.pyogenes O2A1UC1; O2A1UC1, read-out: Minimum Inhibition Concentration): 0.15 µg/mL (≈ 0.104 µM) | MIC [2]: 0.6 µg/mL (≈ 0.414 µM) | MIC (Strepto gr.G O2G0CB2): 0.15 µg/mL (≈ 0.104 µM)
